Structures can show the parent of a compound that is named as a salt.
What was measured:
PC-3 = assay: In vitro proliferation assay (MTT), PC-3; assay type: cell-based, human; conditions: Homo sapiens, PC-3, MTT assay; value (SD, n) where given; read-out: PC-3 Prostate (IC50 µM)
Description: (§1) The proliferation of tumor cells can be measured using a tetrazolium salt-based assay known as the MTT (3-[4,5-Dimethylthiazol-2-yl]-2,5-diphenyltetrazolium bromide) assay. […] For the assay, the cell lines are plated onto 96 well plates at 1000 to 2500 cells/well (depending on the properties of the individual cell lines), left to attach and recover overnight. […] After 3 days, the cells are incubated with MTT dye (3-[4,5-Dimethylthiazol-2-yl]-2,5-diphenyltetrazolium bromide, Sigma # M5655, 10 mg/ml in Hank's Buffered Saline) to estimate the amount of live cells remaining vs. concentration for the test compounds. […] The MTT and culture medium is then removed from the cultures and 200 µl of DMSO is added to solubilize the dye from the cell layer. The absorbance at 570 nm is determined for each culture using a Spectramax plate reader (Molecular Devices).
(§2) IC50s were determined from the raw data from either the MTT or SRB assays.
(§3) All of the cell lines were obtained from American Type Tissue Collection, with the ATCC accession number in parentheticals. MCF-7 and MDA-MB-231 cells were grown in improved minimum essential medium (Biofluids) without phenol red, supplemented with 5 % fetal bovine serum, 0.01 mg/ml gentamicin and 3 mM L-glutamine.

cdk4/cyclin D1 = cdk4/cyclin D1 (Homo sapiens, UniProt P11802); assay: Cyclin-dependent kinase assay, cdk4/cyclin D1; assay type: biochemical; conditions: cyclin D1/cdk4; GST-pRb substrate, 10 µM ATP
Chain of cdk4/cyclin D1 (P11802 whole entry): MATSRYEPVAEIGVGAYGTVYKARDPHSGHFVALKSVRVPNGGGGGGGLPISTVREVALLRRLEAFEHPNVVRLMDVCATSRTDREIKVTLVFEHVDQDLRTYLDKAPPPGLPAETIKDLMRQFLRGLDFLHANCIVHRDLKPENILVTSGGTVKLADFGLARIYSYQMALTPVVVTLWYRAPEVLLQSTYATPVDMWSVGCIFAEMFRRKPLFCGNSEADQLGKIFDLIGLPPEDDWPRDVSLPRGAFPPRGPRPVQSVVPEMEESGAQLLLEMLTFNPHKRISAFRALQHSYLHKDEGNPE
Chain of cdk4/cyclin D1 (P24385 whole entry partner): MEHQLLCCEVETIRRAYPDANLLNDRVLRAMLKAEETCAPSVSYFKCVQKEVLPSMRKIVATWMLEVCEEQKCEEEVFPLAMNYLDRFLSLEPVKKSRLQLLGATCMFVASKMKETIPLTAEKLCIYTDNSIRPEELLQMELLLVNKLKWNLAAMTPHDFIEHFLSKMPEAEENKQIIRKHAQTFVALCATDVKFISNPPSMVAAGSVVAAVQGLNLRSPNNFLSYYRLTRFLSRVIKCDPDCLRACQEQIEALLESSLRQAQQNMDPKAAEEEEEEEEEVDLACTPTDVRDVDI

cdk1/cyclin B = cdk1/cyclin B (Homo sapiens, UniProt P06493); assay: Cyclin-dependent kinase assay, cdk1/cyclin B; conditions: CDK1 IC50, nM, Histone H1, 10 µM ATP
Chain of cdk1/cyclin B (P06493 whole entry): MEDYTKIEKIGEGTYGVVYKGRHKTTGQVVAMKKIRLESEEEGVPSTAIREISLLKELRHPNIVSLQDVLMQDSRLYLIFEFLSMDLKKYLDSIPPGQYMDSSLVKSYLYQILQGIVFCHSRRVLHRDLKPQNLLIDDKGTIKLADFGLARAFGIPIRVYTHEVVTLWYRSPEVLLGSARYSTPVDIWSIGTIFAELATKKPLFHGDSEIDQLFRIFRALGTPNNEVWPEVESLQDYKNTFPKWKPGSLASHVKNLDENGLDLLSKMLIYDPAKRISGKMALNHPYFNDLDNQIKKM
Chain of cdk1/cyclin B (P14635 whole entry partner): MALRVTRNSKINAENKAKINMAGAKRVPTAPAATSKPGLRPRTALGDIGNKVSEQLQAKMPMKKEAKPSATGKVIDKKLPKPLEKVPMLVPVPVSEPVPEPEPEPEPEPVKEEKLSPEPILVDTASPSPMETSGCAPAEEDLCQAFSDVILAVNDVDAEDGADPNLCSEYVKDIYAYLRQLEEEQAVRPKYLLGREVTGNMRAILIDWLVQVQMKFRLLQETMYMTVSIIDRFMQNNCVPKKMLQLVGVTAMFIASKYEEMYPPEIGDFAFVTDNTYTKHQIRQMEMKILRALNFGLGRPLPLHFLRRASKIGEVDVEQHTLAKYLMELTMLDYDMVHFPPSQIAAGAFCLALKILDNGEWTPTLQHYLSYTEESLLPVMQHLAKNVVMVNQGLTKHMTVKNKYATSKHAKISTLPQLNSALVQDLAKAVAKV

MDA-MB-435 = assay: In vitro proliferation assay (MTT), MDA-MB-435; assay type: cell-based, human; conditions: Homo sapiens, MDA-MB-435, MTT assay; value (SD, n) where given; read-out: MB-435 Breast (IC50 µM)
Description: as §1, §2, §3

cdk2/cyclin E = cdk2/cyclin E (Homo sapiens, UniProt P24941); assay: Cyclin-dependent kinase assay, cdk2/cyclin E; conditions: CDK2 IC50, nM, GST-pRb substrate, 10 µM ATP
Description: The insect cell (Sf9) expression is optimized for each of the CDK/cyclin pairs according to the manufacturer's protocols (Life Technologies).
The viruses are added to the cells and the culture is incubated at 27°C for the desired time. The cells are harvested by centrifugation at 3000 rpm for 10 minutes. The cells are snap frozen on dry ice and stored at - 80°C.
Cell extracts are made following a standard procedure. The cell pellet is resuspended in lysis buffer (50 mM HEPES, pH 8.0, 10 mM MgCl2, 1 mM DTT, 2.5 mM EGTA, 1 mM EDTA, 10 mM β-glycerophosphate, 1 mM sodium vanadate, 1 mM sodium fluoride, 1 x Protease inhibitor cocktail). The cells are lysed using the microfluidizer (Microfluidics) for 20 minutes. Cell debris is removed by centrifugation at 100,000 x g. The cell extracts are aliquoted in 1 ml aliquots, frozen on dry ice, and stored at -80°C.
The kinase reactions are performed following a standard procedure. The enzyme and inhibitor are diluted in kinase buffer (50 mM HEPES, pH 8.0, 10 mM MgCl2, 2.5 mM EGTA, 10 mM β-glycerophosphate, 1 mM sodium vanadate, 1 mM sodium fluoride, and 1 mM DTT) and pre-incubated for 30 minutes. The cdk2 and cdk4 enzyme activities are assayed using 500 ng of the GST-pRb substrate (see description below) in the presence of 10 µM cold ATP and 1 µCi of [γ-^33P] ATP for 30 minutes at room temperature. […] The reactions are terminated by the addition of 50 µL of 10 mM cold ATP to stop the reactions. The reactions are transferred to a pre-soaked 96-well multi-screen plate containing 30 µL of 100% TCA per well. After incubation for one hour at room temperature, the plates are washed twice with 200 µl of 20% TCA, followed by 200 µl of 10% TCA and finally with 200 µl of 5% TCA. After drying the plates at room temperature, the filter plates are placed in adapter plates (Packard) and 40 µl of Microscint-O® (Packard) is added to each well.

N[C@H]1CC[C@H](Nc2nc(NC3CCN(C(=O)c4ccccc4Br)CC3)c3ncn(C4CCCC4)c3n2)CC1 [compound 13, trans-1-{4-[2-(4-Amino-cyclohexylamino)-9-cyclopentyl-9H-purin-6-ylamino]-piperidin-1-yl}-1-(2-bromo-phenyl)-methanone]
IC50 (PC-3): 2.55 µM | IC50 (cdk4/cyclin D1): 373 nM | IC50 (cdk1/cyclin B): 197 nM | IC50 (MDA-MB-435): 2.89 µM | IC50 (cdk2/cyclin E): 364 nM

N[C@H]1CC[C@H](Nc2nc(NC3CCN(C(=O)c4c(Cl)cccc4Cl)CC3)c3ncn(C4CCCC4)c3n2)CC1 [compound 14, trans-1-{4-[2-(4-Amino-cyclohexylamino)-9-cyclopentyl-9H-purin-6-ylamino]-piperidin-1-yl}-1-(2,6-dichloro-phenyl)-methanone]
IC50 (PC-3): 2.99 µM | IC50 (cdk4/cyclin D1): 17 nM | IC50 (cdk1/cyclin B): 164 nM | IC50 (MDA-MB-435): 2.98 µM | IC50 (cdk2/cyclin E): 514 nM

N[C@H]1CC[C@H](Nc2nc(NC3CCN(C(=O)c4ccc(Cl)c(Cl)c4)CC3)c3ncn(C4CCCC4)c3n2)CC1 [compound 15, trans-1-{4-[2-(4-Amino-cyclohexylamino)-9-cyclopentyl-9H-purin-6-ylamino]-piperidin-1-yl}-1-(3,4-dichloro-phenyl)-methanone]
IC50 (PC-3): 0.74 µM | IC50 (cdk4/cyclin D1): 732 nM | IC50 (cdk1/cyclin B): 61 nM | IC50 (MDA-MB-435): 0.67 µM | IC50 (cdk2/cyclin E): 291 nM

COc1cc(C(=O)N2CCC(Nc3nc(N[C@H]4CC[C@H](N)CC4)nc4c3ncn4C3CCCC3)CC2)cc(OC)c1OC [compound 16, trans-1-{4-[2-(4-Amino-cyclohexylamino)-9-cyclopentyl-9H-purin-6-ylamino]-piperidin-1-yl}-1-(3,4,5-trimethoxy-phenyl)-methanone]
IC50 (PC-3): 7.91 µM | IC50 (cdk4/cyclin D1): 372 nM | IC50 (cdk1/cyclin B): 43 nM | IC50 (MDA-MB-435): 8.52 µM | IC50 (cdk2/cyclin E): 83 nM

COc1cc(OC)cc(C(=O)N2CCC(Nc3nc(N[C@H]4CC[C@H](N)CC4)nc4c3ncn4C3CCCC3)CC2)c1 [compound 17, trans-1-{4-[2-(4-Amino-cyclohexylamino)-9-cyclopentyl-9H-purin-6-ylamino]-piperidin-1-yl}-1-(3,5-dimethoxy-phenyl)-methanone]
IC50 (PC-3): 1.82 µM | IC50 (cdk4/cyclin D1): 467 nM | IC50 (cdk1/cyclin B): 89 nM | IC50 (MDA-MB-435): 2.22 µM | IC50 (cdk2/cyclin E): 189 nM

CCCCOc1ccc(C(=O)N2CCC(Nc3nc(N[C@H]4CC[C@H](N)CC4)nc4c3ncn4C3CCCC3)CC2)cc1 [compound 18, trans-1-{4-[2-(4-Amino-cyclohexylamino)-9-cyclopentyl-9H-purin-6-ylamino]-piperidin-1-yl}-1-(4-butoxy-phenyl)-methanone]
IC50 (PC-3): 3.43 µM | IC50 (cdk4/cyclin D1): 1490 nM | IC50 (cdk1/cyclin B): 506 nM | IC50 (MDA-MB-435): 2.76 µM | IC50 (cdk2/cyclin E): 336 nM

CCCCCCCOc1ccc(C(=O)N2CCC(Nc3nc(N[C@H]4CC[C@H](N)CC4)nc4c3ncn4C3CCCC3)CC2)cc1 [compound 19, trans-1-{4-[2-(4-Amino-cyclohexylamino)-9-cyclopentyl-9H-purin-6-ylamino]-piperidin-1-yl}-1-(4-heptoxy-phenyl)-methanone]
IC50 (PC-3): 0.96 µM | IC50 (cdk4/cyclin D1): 883 nM | IC50 (cdk1/cyclin B): 62 nM | IC50 (MDA-MB-435): 0.58 µM | IC50 (cdk2/cyclin E): 567 nM

CC(C)(C)c1ccc(C(=O)N2CCC(Nc3nc(N[C@H]4CC[C@H](N)CC4)nc4c3ncn4C3CCCC3)CC2)cc1 [compound 20, trans-1-{4-[2-(4-Amino-cyclohexylamino)-9-cyclopentyl-9H-purin-6-ylamino]-piperidin-1-yl}-1-(4-tert-butyl-phenyl)-methanone]
IC50 (PC-3): 1.96 µM | IC50 (cdk4/cyclin D1): 682 nM | IC50 (cdk1/cyclin B): 161 nM | IC50 (MDA-MB-435): 2.25 µM | IC50 (cdk2/cyclin E): 352 nM

CCCCCc1ccc(C(=O)N2CCC(Nc3nc(N[C@H]4CC[C@H](N)CC4)nc4c3ncn4C3CCCC3)CC2)cc1 [compound 22, trans-1-{4-[2-(4-Amino-cyclohexylamino)-9-cyclopentyl-9H-purin-6-ylamino]-piperidin-1-yl}-1-(4-pentyl-phenyl)-methanone]
IC50 (PC-3): 1.86 µM | IC50 (cdk4/cyclin D1): 383 nM | IC50 (cdk1/cyclin B): 182 nM | IC50 (MDA-MB-435): 1.61 µM | IC50 (cdk2/cyclin E): 571 nM

CCCCCCc1ccc(C(=O)N2CCC(Nc3nc(N[C@H]4CC[C@H](N)CC4)nc4c3ncn4C3CCCC3)CC2)cc1 [compound 23, trans-1-{4-[2-(4-Amino-cyclohexylamino)-9-cyclopentyl-9H-purin-6-ylamino]-piperidin-1-yl}-1-(4-hexyl-phenyl)-methanone]
IC50 (PC-3): 2.27 µM | IC50 (cdk4/cyclin D1): 629 nM | IC50 (cdk1/cyclin B): 300 nM | IC50 (MDA-MB-435): 1.08 µM | IC50 (cdk2/cyclin E): 596 nM

N#Cc1ccc(C(=O)N2CCC(Nc3nc(N[C@H]4CC[C@H](N)CC4)nc4c3ncn4C3CCCC3)CC2)cc1 [compound 25, trans-1-{4-[2-(4-Amino-cyclohexylamino)-9-cyclopentyl-9H-purin-6-ylamino]-piperidin-1-yl}-1-(4-cyano-phenyl)-methanone]
IC50 (PC-3): 2.72 µM | IC50 (cdk4/cyclin D1): 629 nM | IC50 (cdk1/cyclin B): 56 nM | IC50 (MDA-MB-435): 3.76 µM | IC50 (cdk2/cyclin E): 79 nM

N[C@H]1CC[C@H](Nc2nc(NC3CCN(C(=O)c4cccc([N+](=O)[O-])c4)CC3)c3ncn(C4CCCC4)c3n2)CC1 [compound 26, trans-1-{4-[2-(4-Amino-cyclohexylamino)-9-cyclopentyl-9H-purin-6-ylamino]-piperidin-1-yl}-1-(3-nitro-phenyl)-methanone]
IC50 (PC-3): 1.67 µM | IC50 (cdk4/cyclin D1): 564 nM | IC50 (cdk1/cyclin B): 31 nM | IC50 (MDA-MB-435): 2.18 µM | IC50 (cdk2/cyclin E): 78 nM

CCOC(=O)CC(=O)N1CCC(Nc2nc(N[C@H]3CC[C@H](N)CC3)nc3c2ncn3C2CCCC2)CC1 [compound 29, trans-3-{4-[2-(4-Amino-cyclohexylamino)-9-cyclopentyl-9H-purin-6-ylamino]-piperidin-1-yl}-3-oxo-propionic acid ethyl ester dihydrochloride]
IC50 (PC-3): 2.4 µM | IC50 (cdk4/cyclin D1): 632 nM | IC50 (cdk1/cyclin B): 27 nM | IC50 (MDA-MB-435): 3 µM | IC50 (cdk2/cyclin E): 56 nM

COc1ccc(CC(=O)N2CCC(Nc3nc(N[C@H]4CC[C@H](N)CC4)nc4c3ncn4C3CCCC3)CC2)cc1OC [compound 32, trans 1-{4-[2-(4-Amino-cyclohexylamino)-9-cyclopentyl-9H-purin-6-ylamino]-piperidin-1-yl}-2-(3,4-dimethoxy-phenyl)-ethanone dihydrochloride]
IC50 (PC-3): 4.84 µM | IC50 (cdk4/cyclin D1): 189 nM | IC50 (cdk1/cyclin B): 24 nM | IC50 (MDA-MB-435): 5.46 µM | IC50 (cdk2/cyclin E): 53 nM

C/C=C/C(=O)N1CCC(Nc2nc(N[C@H]3CC[C@H](N)CC3)nc3c2ncn3C2CCCC2)CC1 [compound 35, trans (E)-1-{4-[2-(4-Amino-cyclohexylamino)-9-cyclopentyl-9H-purin-6-ylamino]-piperidin-1-yl}-but-2-en-1-one dihydrochloride]
IC50 (PC-3): 0.98 µM | IC50 (cdk4/cyclin D1): 766 nM | IC50 (cdk1/cyclin B): 48 nM | IC50 (MDA-MB-435): 1.38 µM | IC50 (cdk2/cyclin E): 55 nM

N[C@H]1CC[C@H](Nc2nc(NC3CCN(C(=O)CCC4CCCC4)CC3)c3ncn(C4CCCC4)c3n2)CC1 [compound 36, trans-1-{4-[2-(4-Amino-cyclohexylamino)-9-cyclopentyl-9H-purin-6-ylamino]-piperidin-1-yl}-3-cyclopentyl-propan-1-one dihydrochloride]
IC50 (PC-3): 0.39 µM | IC50 (cdk4/cyclin D1): 697 nM | IC50 (cdk1/cyclin B): 45 nM | IC50 (MDA-MB-435): 0.39 µM | IC50 (cdk2/cyclin E): 79 nM

— patent EP1377579B1 (Aventis Pharmaceuticals Inc., priority 2000, dated 2002)
